Measurements as given in patent US20060135574A1, “Novel uses for estrogen beta agonists” (Wyeth, priority 2004, published 2006).

Key:
male mice = conditions: cited from earlier work
βERKO female mice = assay: Phencyclidine (PCP) induced locomotor activity (LMA) during PCP withdrawal; format: in vivo; conditions: 0.3 mg/kg on day 5, sub-effective PCP dose after 4 day withdrawal
Description: Animals were treated for five (5) days with PCP. Following this period, the animals were given a 4 day withdrawal period. One group received 0.3mg/kg estradiol benzoate on day 5. […] Thus, the classic estrogen agonist, estradiol benzoate, effectively blocks the effects of PCP on LMA, with other ERβ agonists likely to behave similarly.

Male C56/BL6 mice = assay: Apomorphine induced climbing (AIC) in pretreated male mice; format: in vivo; conditions: for attenuation / blockade of apomorphine induced climbing (AIC): male mice pretreated for 3 consecutive days, estradiol benzoate 0.1, 0.3 and 1 mg/kg, at 24 and 48 hours
Source text: Patients can be evaluated for cognitive diseases or disorders by any of the tests known in the art. Preclinically, animals can be evaluated for blockade/attenuation of symptoms associated with schizophrenia. Positive symptoms in animal models of schizophrenia can be evaluated by measuring changes in the overall level of activity of dopamine (DA) activity with concomitant parallel changes in locomotor activity (Depoortere R et al., 2003 Neuropsychopharmacology 28(11):1889-902), D-amphetamine (AMPH) and phencyclidine (PCP) via induction of model psychosis or locomotor hyperactivity (Freed W J et al., 1984 Neuropharmacology 23(2A):175-81; Sams-Dodd, F. 1998 Neuropsychopharmacology 19(1): 18-25). For example, Depoortere et al. have described tests for evaluating locomotor activity, catalepsy, climbing and stereotypy, which relate to positive symptomology and side effect profile, by characterizing compounds with typical and atypical antipsychotic efficacy (2003). Attenuation in apomorphine-induced climbing, stereotypy and catalepsy (AIC) can be evaluated as described by Fung Y K et al. 1986 Pharmacol Biochem Behav. 1986 24(1):139-41 and Fung, et aL, 1987 Steroids 49(4-5):287-94. Additionally, negative symptoms of schizophrenia can be evaluated by measuring social interaction under the influence of NMDA antagonists such as PCP (Sams-Dodd F 1998).
Male C56/BL6 mice were pretreated with estradiol benzoate 0.1, 0.3 and 1 mg/kg and an estrogen beta agonist, 7-bromo-2-(4-hydroxyphenyl)-1,3-benzoxazol-5-ol for three (3) consecutive days, and then evaluated for locomotor activity, catalepsy, AIC and stereotypy. Estradiol benzoate attenuated AIC at 24 and 48 hours (approximately 55%), while the estrogen beta agonist, 7-bromo-2-(4-hydroxyphenyl)-1,3-benzoxazol-5-ol, outperformed estradiol benzoate by inducing a sixty percent (60%) blockade of AIC in the male mice.

[1] = tested on: ovariectomized female rats; assay: Working memory, radial arm maze win-shift task; format: in vivo; conditions: OVX rats; estradiol benzoate 0.02 mg/kg s.c. in oil for 2 days; ERβ and ERα agonists 10 mg/kg for 6 days
Source text: Cognitive symptoms of memory, including those from Alzheimer's disease and stroke, can be evaluated by such models as the Fear Conditioning Paradigm (Gould T J et al., 2002 Behav Pharmacol. 13(4):287-94; Hamm A O et al., 2003 Brain 126(Pt 2):267-75) and Radial Arm Test (Aggleton J P et al., 1996 Behav Brain Res. 19(2):133-46), while spatial reference memory and learning can be evaluated in the Morris watermaze (Bontempi B et al., 1996 Eur J Neurosci. 8(11):2348-60). Additionally, memory and hippocampal hypo-functioning can be assessed by measuring the restoration of synaptic plasticity in ovariectomized (OVX) female rats. (Day and Good, 2005 Jan., Neurobiol Learn Mem., 83(1): 13-21). Further, changes in attention function because of schizophrenia can be examined by the five (5) Choice Serial Reaction Time Test (5CSRT) (see Muir J L, et al., 1995 Psychopharmacology (Berl) 118(1): 82-92; Robbins et al., 1998 Ann N Y Acad Sci. 846:222-37).
Female rats were habituated to a water deprivation schedule and to the radial maze for at least one week prior to acquisition. The rats were ovariectomized six to eight (6-8) weeks before testing. Subjects were then treated with either estradiol benzoate (0.02 mg/kg), the ERfl agonist, 7-bromo-2-(4-hydroxyphenyl)-1,3-benzoxazol-5-ol, or an ERα agonist. […]

[2] = tested on: young men diagnosed with severe schizophrenia; conditions: 33 young men, small doses for two weeks; cited from earlier work
hippocampal CA1 region = assay: Synaptic plasticity (LTD/LTP) in the hippocampal CA1 region after ovariectomy; format: in vivo, rats; conditions: chronic replacement, injection every 48 hours over 5 weeks
Source text: In Experiment 1, ovariectomy carried out either five (5) days or five (5) weeks before testing impaired the induction of long-term depression (LTD), but not long-term potentiation (LTP). […] The findings are discussed with reference to (1) the contribution of Ca^2+ regulated synaptic signaling pathways in the CA1 region to estradiol modulation of LTP and LTD and (2) the potential functional significance of ovariectomy-induced changes in synaptic plasticity for learning and memory processes. […] Restoration of impaired synaptic plasticity of ovariectomized female rats following estrogen treatment can be evaluated by the protocol used by Day and Good, January 2005, Neurobiol Learn Mem., 83(1): 13-21.

aged rats (15 months) = assay: Mild cognitive impairment model: CREB levels and Novel Object Recognition in aged rats; format: in vivo; conditions: single injection 1 mg/kg 30 minutes prior to testing, compared to young 3 month old rats
Description: (§1) Novel Object Recognition is impaired in several disorders of memory including Alzheimer's disease, schizophrenia, mild cognitive impairment (MCI), stroke, amongst others. In rodents, […] is used extensively to examine the effects of drugs on this form of memory. An ERβ agonist, 7-bromo-2-(4-hydroxyphenyl)-1,3-benzoxazol-5-ol, was tested on this form of memory. In the habituation stage (Day 1), the rats, male Long Evans are habituated for 10 minutes each to an arena that contains 2 identical objects (YY). On trial 1 (Day 2), the arena is set up with a different set of identical objects (e.g., BB) and the animals are allowed to spend 5 minutes sniffing each objects. Thirty (30) minutes prior to T1, animals were injected with 7-bromo-2-(4-hydroxyphenyl)-1,3-benzoxazol-5-ol.
cAMP-response-element-binding protein (CREB) is expressed in all cells in the brain and is a member of a family of proteins that function as transcription factors. […] Aged animals show marked decreases in CREB activation and memory; and this decline in cognition in aged rats is a useful model of mild cognitive impairment seen in humans. As such, an ERβ agonist, 7-bromo-2-(4-hydroxyphenyl)-1,3-benzoxazol-5-ol, was tested on this form of recognition memory. […]

male Long Evans rats = assay: Novel Object Recognition; format: in vivo; conditions: 0.5 mg/kg injected 30 minutes prior to T1; Trial 2 48 hours after Day 2
Description: as §1

SMILES	effect on apomorphine induced climbing (male mice)	effect on PCP induced LMA (βERKO female mice)	attenuation / blockade of apomorphine induced climbing (AIC) (Male C56/BL6 mice)	working memory in the radial arm maze [1]	hallucinations and delusions [2]	induction of LTP (hippocampal CA1 region)	magnitude of paired-pulse induced LTD in the CA1 region (hippocampal CA1 region)	blockade of AIC compared with estrogen treatment (FIG. 1) (Male C56/BL6 mice; 3 days of treatment)	CREB levels (aged rats (15 months))	memory in the NOR method (aged rats (15 months))	time investigating the novel object versus the familiar object in Trial 2 (male Long Evans rats)
C[C@]12CC[C@@H]3c4ccc(OC(=O)c5ccccc5)cc4CC[C@H]3[C@@H]1CC[C@@H]2O [estradiol benzoate]	attenuate apomorphine induced climbing	successfully blocked the effect of PCP induced LMA	approximately 55%	improved working memory	–	–	–	–	–	–	–
C[C@]12CC[C@@H]3c4ccc(O)cc4CC[C@H]3[C@@H]1CC[C@@H]2O [17β-estradiol]	–	–	–	–	significant decline in hallucinations and delusions	no effect on the induction of LTP	enhanced the magnitude of paired-pulse induced LTD	–	–	–	–
Oc1ccc(-c2nc3cc(O)cc(Br)c3o2)cc1 [7-bromo-2-(4-hydroxyphenyl)-1,3-benzoxazol-5-ol]	–	–	60%	improved working memory	–	–	–	more profound blockade of AIC	restored the CREB levels	increased memory	significantly improved
